This note sets out measurements from patent US4554100A, “Alkylamides of carboxyalkanoyl peptides and method for preparation thereof” (Spofa, Spojene podniky pro zdravotnickou vyrobu, priority 1981, dated 1985).

By pKi is commonly meant the Ki on a negative log10 scale, so that one unit is a factor of ten.

The target in test [1] is swine's pancreatic elastase (E3) (Sus scrofa, UniProt P00772). The experiment in a line: Inhibition constants (Ki) with pancreatic elastase and chromogenic p-nitroanilide substrates. The class given is biochemical. The source says: (§1) The earlier work also led to the surprising discovery that the carboxy group in the N-terminal part of the inhibitor as compared with the hydrophobic residue, such as an acetyl, substantially enhances inhibition capacity in the same manner as it enhances the constants of elastolytic hydrolysis of substrates of this type. It is further known that the properties of an elastolytic inhibitor are dependent upon the length of the peptide chain as well as at the substrate (eur. J. Biochem. 69, 1, 1976), higher inhibition capacity being present with a tripeptide than with a dipeptide. Experiments with vitro inhibition constants (Ki) for the alkylamides of 3-carboxypropionyl and 4-carboxybutyryl di and tripeptides were determined using pancreatic elastase and chromogenic substrates of p-nitroanilides of succinyl or glutaryl tetraalanines, the results of which are set forth in Table 1, below. Inhibition constant of the inhibitors described herein were also determined using human elastase, that is, human duodenal elastase after stimulation with cholecystokinine (E1) or lyophilized human pancreated fluid obtained by cannulation of the pancreatic duct outlet (E2), and they were then compared with swine's pancreatic elastase (E3), the results of which are set forth in Table 2, below.

The target of test [2] is human duodenal elastase after stimulation with cholecystokinine (E1). Kind of test: Inhibition constants (Ki) with human duodenal elastase and chromogenic substrates. The class given is biochemical.
Excerpt: as §1

The target of test [3] is lyophilized human pancreated fluid obtained by cannulation of the pancreatic duct outlet (E2). The experiment in a line: Inhibition constants (Ki) with human pancreatic fluid elastase and chromogenic substrates. The class given is biochemical.
Excerpt: as §1

The nature of test [4]: Experimental pancreatitis in rats induced by sodium desoxycholate, serum amylase. The class given is in vivo. To be noted: simultaneous application of 20 mg intraperitoneally.
The mark [5] stands for this setting: Table 1, pancreatic elastase, substrate Glt-(Ala)4-NAn, read-out: Ki, substrate Glt-(Ala)4-NAn.
The mark [6] stands for this setting: Table 1, pancreatic elastase, substrate Suc-(Ala)4-NAn, read-out: Ki, substrate Suc-(Ala)4-NAn.
Where [7] appears, read: Table 2, substrate Glt-(Ala)4-NAn, read-out: Ki, Glt-(Ala)4-NAn, E1.
Setting [8] is: Table 2, substrate Suc-(Ala)4-NAn, read-out: Ki, Suc-(Ala)4-NAn, E1.
The mark [9] stands for this setting: Table 2, substrate Glt-(Ala)4-NAn, read-out: Ki, Glt-(Ala)4-NAn, E2.
The mark [10] stands for this setting: Table 2, substrate Suc-(Ala)4-NAn, read-out: Ki, Suc-(Ala)4-NAn, E2.

pKi: −log10 of the molar value. Where two headings read alike, the source gives them in different places. Starred links: 1 amine or outer side, 2 acyl side, 3 side chain; linkers in the order of their positions; H or OH if unused. Residues, ends and D or L forms follow the SMILES beside them. *: point of attachment. Glutaryl = O=C(CCCC(=O)[*:2])[*:1]; NHPhenethyl = c1ccc(CCN*)cc1; Suc = O=C(CCC(=O)[*:2])[*:1]; NHPr = CCCN*

Chain of swine's pancreatic elastase (E3) (P00772 27-266): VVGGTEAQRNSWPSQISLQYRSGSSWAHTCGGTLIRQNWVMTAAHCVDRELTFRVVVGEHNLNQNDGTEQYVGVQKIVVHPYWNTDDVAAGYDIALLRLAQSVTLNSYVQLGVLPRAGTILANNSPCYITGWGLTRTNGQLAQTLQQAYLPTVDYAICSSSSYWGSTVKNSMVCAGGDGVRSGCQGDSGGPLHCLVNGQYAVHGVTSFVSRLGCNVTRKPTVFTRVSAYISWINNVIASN

As for `CCNC(=O)[C@H](C)NC(=O)[C@H](C)NC(=O)[C@H](C)NC(=O)C=CC(=O)O` [Mal--(Ala)3 --NH--Et, 3-Carboxyacryolylalanyl-alanyl Alanine Ethylamide], the pKi in test [1] (setting [5]) was 4.52; in test [1] (setting [6]) it was 4.46; in test [1] (Table 2, swine's pancreatic elastase (E3), substrate Glt-(Ala)4-NAn, read-out: Ki, Glt-(Ala)4-NAn, E3), 4.52; in test [2] (setting [7]), 4.14; in test [2] (setting [8]), 4.06; in test [3] (setting [9]), 3.93. Also, the pKi in test [3] (setting [10]) is 4.16.

`CCCNC(=O)[C@H](C)NC(=O)[C@H](C)NC(=O)[C@H](C)NC(=O)CCCC(=O)O` [Glt--(Ala)3 --NH--Pr, 4-Carboxybutyrylalanyl-alanyl Alanine Propylamide]: the pKi in test [1] (setting [5]) is 5.60; in test [1] (setting [6]) it was 5.60; in test [2] (setting [7]), 5.14; in test [2] (setting [8]) it was 4.96; in test [3] (setting [9]) it was 5.35; in test [3] (setting [10]), 5.42.

For the compound `CCNC(=O)[C@H](C)NC(=O)[C@H](C)NC(=O)CCCC(=O)O` [Glt--(Ala)2 --NH--Et] (Glutaryl-Ala-Ala-NHEt), the results for the negative logarithm of the Ki (pKi) in test [1] (setting [5]) and in test [1] (setting [6]) were 3.96 and 4.17, respectively.

For the compound `C[C@H](NC(=O)CCC(=O)O)C(=O)N[C@@H](C)C(=O)NCCc1ccccc1` [Suc--(Ala)2 --NH--EtPh, 3-Carboxypropionylalanyl Alanine Phenylethylamide] (Suc-Ala-Ala-NHPhenethyl), the negative logarithm of the Ki (pKi) in test [1] (setting [5]) is 3.18; in test [1] (setting [6]), 2.84.

`CCNC(=O)[C@@H]1CCCN1C(=O)[C@H](C)NC(=O)[C@H](C)NC(=O)CCCC(=O)O` [Glt--Ala--Ala--Pro--NH--Et, 4-Carboxybutyrylalanyl-alanyl Proline Ethylamide] (Glutaryl-Ala-Ala-Pro-NHEt): the pKi in test [1] (setting [5]) was 5.57; in test [1] (setting [6]), 5.80; in test [2] (setting [7]) it was 4.92; in test [2] (setting [8]), 5.00; in test [3] (setting [9]), 4.86; in test [3] (setting [10]), 5.54. Further, the “level of serum amylase” value in test [4] was “lower level of serum amylase”.

Consider `CCNC(=O)[C@H](C)NC(=O)[C@H](C)NC(=O)[C@H](C)NC(=O)CCCC(=O)O` [Glt--(Ala)3 --NH--Et, 4-Carboxybutyrylalanyl-alanyl Alanine Ethylamide], for which the negative-log Ki (pKi) was 5.08 in test [1] (setting [5]); 5.06 in test [1] (setting [6]); 4.72 in test [2] (setting [7]); 4.82 in test [2] (setting [8]); 4.72 in test [3] (setting [9]); 5.13 in test [3] (setting [10]). For the same compound, the “level of serum amylase” value in test [4] was “lower level of serum amylase”.

With `CC(C)CNC(=O)[C@@H]1CCCN1C(=O)[C@H](C)NC(=O)CCC(=O)O` [Suc--Ala--Pro--NH--iBu], the pKi in test [1] (setting [5]) was 2.24; in test [1] (setting [6]) it was 2.69.

`CCCNC(=O)[C@H](C)NC(=O)[C@H](C)NC(=O)[C@H](C)NC(=O)CCC(=O)O` [Suc--(Ala)3 --NH--Pr, 3-Carboxypropionylalanyl-alanyl Alanine Propylamide]: the negative logarithm of the Ki (pKi) was 5.35 in test [1] (setting [5]); 5.17 in test [1] (setting [6]); 4.68 in test [2] (setting [7]); 4.92 in test [2] (setting [8]); 4.85 in test [3] (setting [9]); 4.89 in test [3] (setting [10]).

For `CNC(=O)[C@H](C)NC(=O)[C@H](C)NC(=O)[C@H](C)NC(=O)CCC(=O)O` [Suc--(Ala)3 --NH--Me], the results for the negative logarithm of the Ki (pKi) in test [1] (setting [5]) and in test [1] (setting [6]) were 3.17 and 3.29, respectively.

Take `CNC(=O)[C@H](C)NC(=O)[C@H](C)NC(=O)[C@H](C)NC(=O)CCCC(=O)O` [Glt--(Ala)3 --NH--Me]: the pKi in test [1] (setting [5]) is 3.49; in test [1] (setting [6]) it was 3.55.

`CCNC(=O)[C@@H]1CCCN1C(=O)[C@H](C)NC(=O)[C@H](C)NC(=O)CCC(=O)O` [Suc--Ala--Ala--Pro--NH--Et, 3-Carboxypropionylalanyl-alanyl Proline Ethylamide] (Suc-Ala-Ala-Pro-NHEt): the pKi in test [1] (setting [5]) is 5.33; in test [1] (setting [6]), 5.60; in test [2] (setting [7]), 4.72; in test [2] (setting [8]), 4.85; in test [3] (setting [9]), 4.77; in test [3] (setting [10]), 4.64.

As to `CCNC(=O)[C@@H]1CCCN1C(=O)[C@H](C)NC(=O)CCC(=O)O` [Suc--Ala--Pro--NH--Et, 3-Carboxypropionylalanyl Proline Ethylamide] (Suc-Ala-Pro-NHEt), the negative logarithm of the Ki (pKi) in test [1] (setting [5]) is 4.10; in test [1] (setting [6]), 3.95.

Consider `CCCNC(=O)[C@@H]1CCCN1C(=O)[C@H](C)NC(=O)[C@H](C)NC(=O)CCCC(=O)O` [Glt-Ala-Ala-Pro-Nh-Pr, 4-Carboxybutyrylalanyl-alanyl Proline Propylamide] (Glutaryl-Ala-Ala-Pro-NHPr), for which the “level of serum amylase” value in test [4] is recorded as “lower level of serum amylase”.

For the compound `CCNC(=O)[C@H](C)NC(=O)[C@H](C)NC(=O)[C@H](C)NC(=O)CCC(=O)O` [Suc--(Ala)3 --NH--Et, 3-Carboxypropionylalanyl-alanyl Alanine Ethylamide], the pKi is 4.54 in test [1] (setting [5]); 4.70 in test [1] (setting [6]); 4.70 in test [1] (Table 2, swine's pancreatic elastase (E3), substrate Suc-(Ala)4-NAn, read-out: Ki, Suc-(Ala)4-NAn, E3); 4.05 in test [2] (setting [7]); 4.12 in test [2] (setting [8]); 4.33 in test [3] (setting [9]). Further, in test [3] (setting [10]), the pKi was 4.54.

As to `CCNC(=O)[C@H](C)NC(=O)[C@H](C)NC(=O)[C@H](C)NC(C)=O` [Ac--(Ala)3 --NH--Et, reference compound], the pKi in test [1] (setting [5]) is 4.34; in test [1] (setting [6]) it was 4.55; in test [2] (setting [7]), 3.91; in test [2] (setting [8]), 3.62; in test [3] (setting [9]) it was 3.93; in test [3] (setting [10]), 4.16.

On to `CCNC(=O)[C@H](C)NC(=O)[C@H](C)NC(=O)CCC(=O)O` [Suc--(ala)2 --NH--Et] (Suc-Ala-Ala-NHEt), for which the pKi is 3.78 in test [1] (setting [5]) and 4.02 in test [1] (setting [6]).

Turning to `CC(C)CNC(=O)[C@H](C)NC(=O)[C@H](C)NC(=O)[C@H](C)NC(=O)CCCC(=O)O` [Glt--(Ala)3 --NH--iBu, 4-Carboxybutyrylalanyl-alanyl Alanine Isobutylamide], the negative-log Ki (pKi) is 3.10 in test [1] (setting [5]) and 3.18 in test [1] (setting [6]).

Consider `CC(C)CNC(=O)[C@H](C)NC(=O)[C@H](C)NC(=O)[C@H](C)NC(=O)CCC(=O)O` [Suc--(Ala)3 --NH--iBu, 3-Carboxypropionylalanyl-alanyl Alanine Isobutylamide], for which the pKi was 2.83 in test [1] (setting [5]) and 3.09 in test [1] (setting [6]).
